Where two headings read alike, the source gives them in different places.
What was measured:
CSF-1R = molecular target: T1, CSF-1R (Homo sapiens, UniProt P07333); test: CSF-1R in vitro biochemical kinase study (ADP-Glo assay)
T1 construct: 3.95 nM of CSF-1R, 500 μM of ATP

KIT = KIT (Homo sapiens, UniProt P10721); test: KIT in vitro biochemical kinase study (Caliper EZ Reader); conditions: * = average of multiple tests; read-out: Enzymatic experiment KIT IC50
Method: (§1) 8. the compound IC50 value was measured by using a plate reader (Tecan, M1000) and a four-parameter curve was generated in Graphpad Prism. The enzymatic activities of compounds in the specific embodiments are shown in Table 1. • B. KIT/PDGFRA in vitro biochemical kinase study • 1. Preparation of 1-fold kinase buffer and stop solution • 1.1. 1-fold kinase buffer: 50 mM HEPES, pH 7.5, 0.0015% Brij-35. • 1.2 stop solution: 100 mM HEPES, pH 7.5, 0.015% Brij-35, 0.2% Coating Reagent #3, 50 mM EDTA • 2 Preparation of compound solution • 2.1 Dilution of compound solution • 1) The final concentration of the compound solution was 40 μM, and the concentration of the prepared stock solution was 50 times of the final concentration, i.e., 2 mM. • 2) 80 μL of 100% DMSO was added to the second well of a 96-well plate, and then 20 μL of 10 mM compound solution was added to obtain 2 mM compound solution. 60 μL of 100% DMSO was added to other wells. 20 μL solution was taken from the second well and added to the third well, which was diluted by 4 times. This serial 4-time dilution was conducted in sequence for the total of 10 concentration. • 2.2 5-fold compound solution transferred to a reaction plate • 1) 10 μL solution was taken from each well of the above 96-well plate and added to another 96-well plate, and 90 µl of kinase buffer was added in each well of new plate. • 2) 5 μL solution was taken from the above 96-well plate and added to a 384-well reaction plate. • 2.3 Kinase reaction • 1) KIT/PDGFRA kinase was added to the 1-fold kinase buffer solution to obtain a 2.5-fold kinase solution. • 2) FAM-labeled polypeptide and ATP were added to the 1-fold kinase buffer solution to obtain a 2.5-fold substrate solution. • 3) 10 μL of 2.5-fold kinase solution was added to the 384-well reaction plate, which already contained 5 μL of 5-fold compound in 10% DMSO. […] Percent inhibition=(max-conversion)/(max-min)×100
(§2) 3) The IC50 value was fit with XLFit excel add-in version 5.4.0,8: Fitting formula: Y=Bottom+(Top-Bottom)/(1+(IC50/X)^HillSlope).
(§3) CSF-1R cell proliferation study

PDGFRA = PDGFRA (Homo sapiens, UniProt P16234); test: PDGFRA in vitro biochemical kinase study (Caliper EZ Reader); conditions: * = average of multiple tests; read-out: Enzymatic experiment PDGFRA IC50
Sequence of PDGFRA (P16234 24-1089): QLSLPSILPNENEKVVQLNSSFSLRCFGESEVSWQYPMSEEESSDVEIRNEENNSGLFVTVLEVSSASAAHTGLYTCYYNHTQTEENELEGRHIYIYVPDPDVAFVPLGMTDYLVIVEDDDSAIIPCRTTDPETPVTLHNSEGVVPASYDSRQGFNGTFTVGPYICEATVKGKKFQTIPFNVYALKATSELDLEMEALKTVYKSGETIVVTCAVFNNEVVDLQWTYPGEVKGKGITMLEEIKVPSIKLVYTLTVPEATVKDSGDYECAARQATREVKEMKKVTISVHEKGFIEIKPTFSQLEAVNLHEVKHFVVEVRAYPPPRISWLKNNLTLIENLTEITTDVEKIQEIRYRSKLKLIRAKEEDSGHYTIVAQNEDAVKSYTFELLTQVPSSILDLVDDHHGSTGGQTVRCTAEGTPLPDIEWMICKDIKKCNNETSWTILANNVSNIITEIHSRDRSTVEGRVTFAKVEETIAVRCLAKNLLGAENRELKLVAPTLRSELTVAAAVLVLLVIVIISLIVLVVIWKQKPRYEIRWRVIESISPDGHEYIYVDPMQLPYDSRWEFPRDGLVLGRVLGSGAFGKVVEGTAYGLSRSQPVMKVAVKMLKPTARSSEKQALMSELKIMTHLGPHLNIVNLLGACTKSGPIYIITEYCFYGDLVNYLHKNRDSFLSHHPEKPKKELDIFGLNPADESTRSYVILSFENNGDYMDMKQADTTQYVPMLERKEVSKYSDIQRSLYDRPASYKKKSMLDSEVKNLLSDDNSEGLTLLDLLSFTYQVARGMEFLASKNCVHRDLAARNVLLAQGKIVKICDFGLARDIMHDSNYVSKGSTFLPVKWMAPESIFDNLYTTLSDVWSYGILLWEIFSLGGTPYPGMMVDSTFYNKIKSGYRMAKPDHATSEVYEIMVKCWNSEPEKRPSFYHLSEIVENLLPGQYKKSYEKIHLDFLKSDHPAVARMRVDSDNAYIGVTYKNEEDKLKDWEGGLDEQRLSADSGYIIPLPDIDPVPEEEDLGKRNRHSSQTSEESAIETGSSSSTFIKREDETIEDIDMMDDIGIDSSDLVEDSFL
Method: as §1, §2, §3

[1] = tested on: M-NFS-60 mouse myeloid leukemia lymphocytes; test: CSF-1R cell proliferation study (Cell Titer Glo); assay type: cell-based; conditions: Lymphocyte, 72 h;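 note: M-CSF-driven proliferation, viable cells quantified as ATP by luminescence, compounds tested as 3-fold serial dilutions, values from four-parameter curve fits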
[2] = tested on: M-07e human cytomegalic leukemia cells; test: CSF-1R-related cell proliferation experiment, KIT (Cell Titer Glo); assay type: cell-based; conditions: 72 h, read-out: Cytological experiment KIT IC50 (nM)
[3] = tested on: MV-4-11 human acute monocytic leukemia cells; test: CSF-1R-related cell proliferation experiment, FLT3 (Cell Titer Glo); assay type: cell-based; conditions: MV4-11, 72 h, read-out: Cytological experiment FLT3 IC50 (nM)
[4] = tested on: NCI-H1703 human non-small cell lung squamous carcinoma cells; test: CSF-1R-related cell proliferation experiment, PDGFRA (Cell Titer Glo); assay type: cell-based; conditions: NCI-H1703, 72 h, read-out: Cytological experiment PDGERA IC50 (nM)
[5] = read-out: Cytological experiment CS1-1R Absolute IC50 (nM)
[6] = read-out: Cytological experiment CSF-1R IC50 (nM)

T1 sequence (P07333 20-972): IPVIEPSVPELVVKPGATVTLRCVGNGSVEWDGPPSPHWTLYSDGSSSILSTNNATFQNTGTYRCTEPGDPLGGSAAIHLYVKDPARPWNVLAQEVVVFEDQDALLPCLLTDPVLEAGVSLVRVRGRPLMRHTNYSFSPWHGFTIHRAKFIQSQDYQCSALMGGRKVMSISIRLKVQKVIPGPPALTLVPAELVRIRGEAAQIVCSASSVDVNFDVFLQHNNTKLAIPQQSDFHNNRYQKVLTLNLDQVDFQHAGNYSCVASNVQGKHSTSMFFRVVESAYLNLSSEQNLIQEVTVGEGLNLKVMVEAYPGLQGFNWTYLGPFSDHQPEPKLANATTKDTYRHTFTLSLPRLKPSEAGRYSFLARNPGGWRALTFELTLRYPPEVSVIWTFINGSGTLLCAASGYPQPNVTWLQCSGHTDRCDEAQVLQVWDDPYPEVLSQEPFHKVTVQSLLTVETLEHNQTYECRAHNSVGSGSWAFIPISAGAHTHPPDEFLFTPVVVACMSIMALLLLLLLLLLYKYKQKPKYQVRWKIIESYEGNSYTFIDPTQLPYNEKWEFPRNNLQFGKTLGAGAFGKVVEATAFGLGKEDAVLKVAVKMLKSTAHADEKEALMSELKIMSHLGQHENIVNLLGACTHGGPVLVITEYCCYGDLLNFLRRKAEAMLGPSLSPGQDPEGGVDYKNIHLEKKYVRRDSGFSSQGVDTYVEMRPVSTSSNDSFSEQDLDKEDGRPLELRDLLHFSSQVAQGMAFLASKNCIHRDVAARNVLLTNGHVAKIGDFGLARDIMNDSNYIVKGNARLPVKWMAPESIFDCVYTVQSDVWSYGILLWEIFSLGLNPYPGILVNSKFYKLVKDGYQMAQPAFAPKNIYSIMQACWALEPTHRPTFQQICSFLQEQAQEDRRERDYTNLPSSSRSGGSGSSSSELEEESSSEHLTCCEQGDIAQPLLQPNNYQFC
Sequence of KIT (P10721 26-976): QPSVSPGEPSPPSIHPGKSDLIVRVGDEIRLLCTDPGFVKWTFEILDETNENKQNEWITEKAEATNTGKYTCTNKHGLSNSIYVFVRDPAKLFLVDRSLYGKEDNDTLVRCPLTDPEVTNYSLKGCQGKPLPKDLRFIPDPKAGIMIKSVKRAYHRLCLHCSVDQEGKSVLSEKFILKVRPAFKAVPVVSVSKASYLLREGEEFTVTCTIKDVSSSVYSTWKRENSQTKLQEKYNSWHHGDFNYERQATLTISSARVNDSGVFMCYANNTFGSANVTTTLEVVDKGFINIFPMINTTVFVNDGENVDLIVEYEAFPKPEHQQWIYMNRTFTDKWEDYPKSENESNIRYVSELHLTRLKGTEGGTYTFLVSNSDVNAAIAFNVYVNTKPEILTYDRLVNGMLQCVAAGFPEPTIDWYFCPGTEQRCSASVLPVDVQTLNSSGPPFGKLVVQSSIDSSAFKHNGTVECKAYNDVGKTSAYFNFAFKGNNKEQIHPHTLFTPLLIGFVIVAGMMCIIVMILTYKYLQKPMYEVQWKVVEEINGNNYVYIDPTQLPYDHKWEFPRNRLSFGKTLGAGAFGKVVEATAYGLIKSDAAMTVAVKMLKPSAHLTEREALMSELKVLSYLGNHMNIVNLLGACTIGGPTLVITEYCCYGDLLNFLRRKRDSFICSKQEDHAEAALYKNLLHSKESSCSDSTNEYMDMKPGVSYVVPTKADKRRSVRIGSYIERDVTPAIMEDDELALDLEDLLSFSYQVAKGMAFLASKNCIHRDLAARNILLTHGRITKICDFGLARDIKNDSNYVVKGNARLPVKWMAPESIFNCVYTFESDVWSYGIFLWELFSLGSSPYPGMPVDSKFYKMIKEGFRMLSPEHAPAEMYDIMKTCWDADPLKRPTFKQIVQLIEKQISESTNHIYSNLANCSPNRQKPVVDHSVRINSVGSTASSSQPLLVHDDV

Structure (SMILES)	IC50 (CSF-1R) [µM]	IC50 (KIT) [µM]	IC50 (PDGFRA) [µM]	IC50 [1, 5] [nM]	IC50 [1, 6] [nM]	IC50 [2] [nM]	IC50 [3] [nM]	IC50 [4] [nM]
CCn1cc(-c2cc(Oc3ccc(NC(=O)N4CCC(C)(C)C4=O)nc3C)ccn2)cn1 [Example 6, N-(5-((2-(1-ethyl-1H-pyrazol-4-yl)pyridin-4-yl)oxy)-6-methylpyridin-2-yl)-3,3-dimethyl-2-oxopyrrolidine-1-carboxamide]	0.0258	0.167	2.45	36.6	42.9	1670	9000	6000
Cc1nc(NC(=O)N2CCC(C)(O)C2=O)ccc1Oc1ccnc(-c2cnn(C)c2)c1 (stereo not drawn) [Example 41, 3-hydroxy-3-methyl-N-(6-methyl-5-((2-(1-methyl-1H-pyrazol-4-yl)pyridin-4-yl)oxy)pyridin-2-yl)-2-oxopyrrolidine-1-carboxamide]	0.445	–	–	> 2000	> 2000	> 18000	> 18000	> 18000
Cc1nc(NC(=O)N2CCOC(C)(C)C2=O)ccc1Oc1ccnc(-c2cnn(C)c2)c1 [Example 29, 2,2-dimethyl-N-(6-methyl-5-((2-(1-methyl-1H-pyrazol-4-yl)pyridin-4-yl)oxy)pyridin-2-yl)-3-oxomorpholine-4-carboxamide]	0.0522	0.0925	0.931	75.1	76.3	> 2000	> 18000	> 6000
Cc1nc(NC(=O)N2CCC(C)(C)C2=O)ccc1Oc1ccnc(-c2cnn(CCO)c2)c1 [Example 10, N-(5-((2-(1-(2-hydroxyethyl)-1H-pyrazol-4-yl)pyridin-4-yl)oxy)-6-methylpyridin-2-yl)-3,3-dimethyl-2-oxopyrrolidine-1-carboxamide]	0.0563	0.476	13.1	140	104	4900	18000	6000
Cc1nc(NC(=O)N2CCC(C)(C)C2=O)ccc1Cc1ccnc(-c2cnn(C)c2)c1 [Example 21, 3,3-dimethyl-N-(6-methyl-5-((2-(1-methyl-1H-pyrazol-4-yl)pyridin-4-yl)methyl)pyridin-2-yl)-2-oxopyrrolidine-1-carboxamide]	0.0599	–	–	31.2	45.2	727	> 2000	> 6000
CCC1(CC)CCN(C(=O)Nc2ccc(Oc3ccnc(-c4cnn(C)c4)c3)c(C)n2)C1=O [Example 34, 3,3-diethyl-N-(6-methyl-5-((2-(1-methyl-1H-pyrazol-4-yl)pyridin-4-yl)oxy)pyridin-2-yl)-2-oxopyrrolidine-1-carboxamide]	0.0517	–	–	21.5	21.3	667	> 2000	1330

Molecules with a lower IC50 (CSF-1R), results first:

IC50 (CSF-1R) [µM]	IC50 (KIT) [µM]	IC50 (PDGFRA) [µM]	IC50 [1, 5] [nM]	IC50 [1, 6] [nM]	IC50 [2] [nM]	IC50 [3] [nM]	IC50 [4] [nM]	Structure (SMILES)
0.0207	–	–	38.7	64.4	> 1120	> 6000	> 6000	Cc1nc(NC(=O)N2CCC(C)(C)C2=O)ccc1Oc1ccnc(-c2cnn(C3CC3)c2)c1 [Example 15, N-(5-((2-(1-cyclopropyl-1H-pyrazol-4-yl)pyridin-4-yl)oxy)-6-methylpyridin-2-yl)-3,3-dimethyl-2-oxopyrrolidine-1-carboxamide]
0.0144	0.0598	0.435	23.1	26.3	158	6000	18000	Cn1cc(-c2cc(Oc3ccc(NC(=O)N4CCC(C)(C)C4=O)nc3)ccn2)cn1 [Example 2, 3,3-dimethyl-N-(5-((2-(1-methyl-1H-pyrazol-4-yl)pyridin-4-yl)oxy)pyridin-2-yl)-2-oxopyrrolidine-1-carboxamide]
0.0242	0.00848	0.107	31.9	35.7	940	10000	9530	Cc1nc(NC(=O)N2CCCC(C)(C)C2=O)ccc1Oc1ccnc(-c2cnn(C)c2)c1 [Example 28, 3,3-dimethyl-N-(6-methyl-5-((2-(1-methyl-1H-pyrazol-4-yl)pyridin-4-yl)oxy)pyridin-2-yl)-2-oxopiperidine-1-carboxamide]
0.00845	–	–	19.4	19.2	190	2980	561	Cc1nc(NC(=O)N2CCC3(CCCC3)C2=O)ccc1Oc1ccnc(-c2cnn(C)c2)c1 [Example 31, N-(6-methyl-5-((2-(1-methyl-1H-pyrazol-4-yl)pyridin-4-yl)oxy)pyridin-2-yl)-1-oxo-2-azaspiro[4.4]nonane-2-carboxamide]
0.0195	0.077	1.4	24.1	25	1060	5560	2870	Cc1nc(NC(=O)N2CCC(C)(C)C2=O)ccc1Oc1ccnc(-c2cnn(C)c2)c1 [Example 1, 3,3-dimethyl-N-(6-methyl-5-((2-(1-methyl-1H-pyrazol-4-yl)pyridin-4-yl)oxy)pyridin-2-yl)-2-oxopyrrolidine-1-carboxamide]
0.0214	–	–	35.5	43.5	> 1120	> 6000	> 2000	[2H]C([2H])([2H])n1cc(-c2cc(Oc3ccc(NC(=O)N4CCC(C)(C)C4=O)nc3C)ccn2)cn1 [Example 11, 3,3-dimethyl-N-(6-methyl-5-((2-(1-(methyl-d3)-1H-pyrazol-4-yl)pyridin-4-yl)oxy)pyridin-2-yl)-2-oxopyrrolidine-1-carboxamide]
0.0199	–	–	40.3	41.9	535	> 6000	> 6000	CCC1(C)CCN(C(=O)Nc2ccc(Oc3ccnc(-c4cnn(C)c4)c3)c(C)n2)C1=O (stereo not drawn) [Example 33, 3-ethyl-3-methyl-N-(6-methyl-5-((2-(1-methyl-1H-pyrazol-4-yl)pyridin-4-yl)oxy)pyridin-2-yl)-2-oxopyrrolidine-1-carboxamide]

From US11149021B2, “N-(azaaryl)cyclolactam-1-carboxamide derivative, preparation method therefor, and use thereof” (Abbisko Therapeutics Co., Ltd., priority 2017, dated 2021)
